According to US6737383B1, “Herbicidal oxadiazolidines” (priority 1999, dated 2004):

Tests used:
[1] = tested on: velvetleaf; assay: Test B pre/postemergence velvetleaf; assay type: in vivo, Abutilon theophrasti
Summary of the method: (§1)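 Herbicidal effect was estimated by eye on a ten-point control scale after plants spent twelve to sixteen days in a greenhouse following soil or foliar treatment. Foliar sprays targeted plants at one to four leaves; all doses were formulated in a non-phytotoxic solvent with surfactant.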

[2] = tested on: crabgrass; assay: Test B pre/postemergence crabgrass; assay type: in vivo, Digitaria sanguinalis
Summary of the method: as §1

[3] = tested on: wild oat; assay: Test B pre/postemergence wild oat; assay type: in vivo, Avena fatua
Summary of the method: as §1

[4] = tested on: duck salad; assay: Test B flood test duck salad; assay type: in vivo, Heteranthera limosa
Summary of the method: (§2)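 Plants were grown to the 2-leaf stage before treatment with test chemical, then held in a greenhouse for twelve to sixteen days. Injury was visually rated against untreated controls on a 0–10 scale, where 0 is no effect and 10 is complete control.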

[5] = tested on: purple nutsedge; assay: Test B pre/postemergence purple nutsedge; assay type: in vivo, Cyperus rotundus
Summary of the method: as §1

[6] = tested on: pigweed; assay: Test B pre/postemergence pigweed; assay type: in vivo, Amaranthus retroflexus
Summary of the method: as §1

[7] = tested on: bedstraw; assay: Test B pre/postemergence bedstraw; assay type: in vivo, Galium aparine
Summary of the method: as §1

[8] = tested on: wheat; assay: Test B pre/postemergence wheat; assay type: in vivo, Triticum aestivum
Summary of the method: as §1

[9] = tested on: morningglory; assay: Test B pre/postemergence morningglory; assay type: in vivo, Ipomoea hederacea
Summary of the method: as §1

[10] = tested on: surinam grass; assay: Test B pre/postemergence surinam grass; assay type: in vivo, Brachiaria decumbens
Summary of the method: as §1

[11] = tested on: blackgrass; assay: Test B pre/postemergence blackgrass; assay type: in vivo, Alopecurus myosuroides
Summary of the method: as §1

[12] = tested on: giant foxtail; assay: Test B pre/postemergence giant foxtail; assay type: in vivo, Setaria faberii
Summary of the method: as §1

[13] = tested on: corn; assay: Test B pre/postemergence corn; assay type: in vivo, Zea mays
Summary of the method: as §1

[14] = tested on: soybean; assay: Test B pre/postemergence soybean; assay type: in vivo, Glycine max
Summary of the method: as §1

[15] = tested on: rape; assay: Test B pre/postemergence rape; assay type: in vivo, Brassica napus
Summary of the method: as §1

[16] = tested on: rice; assay: Test B flood test rice; assay type: in vivo, Oryza sativa
Summary of the method: as §2

[17] = Preemergence, Rate 62 g/ha, scale of 0 to 10 where 0 is no effect and 10 is complete control
[18] = Preemergence, Rate 250 g/ha, scale of 0 to 10 where 0 is no effect and 10 is complete control
[19] = Preemergence, Rate 500 g/ha, scale of 0 to 10 where 0 is no effect and 10 is complete control
[20] = Rate 125 g/ha, Preemergence, scale of 0 to 10 where 0 is no effect and 10 is complete control
[21] = Rate 500 g/ha, Postemergence, scale 0 to 10, 0 no effect, 10 complete control
[22] = Rate 62 g/ha, headed Pre-emergence (flood test species), scale 0 to 10 (0 no effect, 10 complete control)
[23] = Rate 125 g/ha, Pre-emergence, flood test species, scale 0 to 10 where 0 is no effect and 10 is complete control
[24] = Rate 250 g/ha, Pre-emergence, flood-test species, scale 0 to 10, 0 is no effect, 10 is complete control
[25] = Rate 500 g/ha, Pre-emergence, flood test species, scale 0 to 10 (0 no effect, 10 complete control)
[26] = Rate 62 g/ha, Postemergence, scale of 0 to 10 where 0 is no effect and 10 is complete control
[27] = Rate 125 g/ha, Postemergence, scale 0 to 10

SMILES: CC(C)N(C(=O)n1oc(=O)n(CC(C)(C)C)c1=O)c1ccc(F)cc1 [Compound 246]
- Velvetleaf plant response rating [1, 17]: 0
- Velvetleaf plant response rating [1, 18]: 4
- Plant response rating, Velvetleaf [1, 19]: 5
- Velvetleaf plant response rating [1, 20]: 2
- Velvetleaf plant response rating [1, 21]: 3
- Crabgrass plant response rating [2, 17]: 3
- Crabgrass plant response rating [2, 18]: 10
- Plant response rating, Crabgrass [2, 19]: 10
- Crabgrass plant response rating [2, 20]: 3
- Plant response rating (0 to 10; 0 is no effect, 10 is complete control), Crabgrass ([2]; Rate 250 g/ha, Postemergence): 0
- Crabgrass plant response rating [2, 21]: 3
- Wild oats plant response rating [3, 17]: 2
- Wild oats plant response rating [3, 18]: 6
- Plant response rating, Wild oats [3, 19]: 8
- Wild oats plant response rating [3, 20]: 3
- Wild oats plant response rating [3, 21]: 0
- Ducksalad plant response rating [4, 22]: 0
- Ducksalad plant response rating [4, 23]: 0
- Ducksalad plant response rating [4, 24]: 0
- Ducksalad plant response rating [4, 25]: 0
- Nutsedge plant response rating [5, 18]: 0
- Plant response rating, Nutsedge [5, 19]: 0
- Plant response rating (0 to 10; 0 is no effect, 10 is complete control), Nutsedge ([5]; Rate 250 g/ha, Postemergence): 0
- Nutsedge plant response rating [5, 21]: 3
- Redroot pigweed plant response rating [6, 17]: 0
- Redroot pigweed plant response rating [6, 18]: 0
- Plant response rating, Redroot pigweed [6, 19]: 3
- Redroot pigweed plant response rating [6, 20]: 0
- Plant response rating (0 to 10; 0 is no effect, 10 is complete control), Redroot pigweed ([6]; Rate 250 g/ha, Postemergence): 2
- Redroot pigweed plant response rating [6, 21]: 3
- Bedstraw plant response rating [7, 17]: 0
- Bedstraw plant response rating [7, 18]: 0
- Plant response rating, Bedstraw [7, 19]: 2
- Bedstraw plant response rating [7, 26]: 7
- Bedstraw plant response rating [7, 27]: 7
- Bedstraw plant response rating [7, 20]: 0
- Plant response rating (0 to 10; 0 is no effect, 10 is complete control), Bedstraw ([7]; Rate 250 g/ha, Postemergence): 9
- Bedstraw plant response rating [7, 21]: 9
- Wheat plant response rating [8, 17]: 0
- Wheat plant response rating [8, 18]: 0
- Plant response rating, Wheat [8, 19]: 5
- Wheat plant response rating [8, 20]: 0
- Wheat plant response rating [8, 21]: 4
- Morningglory plant response rating [9, 17]: 0
- Morningglory plant response rating [9, 18]: 0
- Plant response rating, Morningglory [9, 19]: 0
- Morningglory plant response rating [9, 20]: 0
- Plant response rating (0 to 10; 0 is no effect, 10 is complete control), Morningglory ([9]; Rate 250 g/ha, Postemergence): 9
- Morningglory plant response rating [9, 21]: 9
- B. signalgrass plant response rating [10, 17]: 0
- B. signalgrass plant response rating [10, 18]: 3
- Plant response rating, B. signalgrass [10, 19]: 5
- B. signalgrass plant response rating [10, 26]: 0
- B. signalgrass plant response rating ([10]; Rate 125 g/ha, Postemergence, scale 0 (no effect) to 10 (complete control)): 0
- B. signalgrass plant response rating [10, 20]: 2
- Plant response rating (0 to 10; 0 is no effect, 10 is complete control), B. signalgrass ([10]; Rate 250 g/ha, Postemergence): 0
- B. signalgrass plant response rating [10, 21]: 1
- Blackgrass plant response rating [11, 18]: 6
- Plant response rating, Blackgrass [11, 19]: 10
- Blackgrass plant response rating [11, 26]: 0
- Blackgrass plant response rating [11, 27]: 2
- Blackgrass plant response rating [11, 20]: 5
- Plant response rating (0 to 10; 0 is no effect, 10 is complete control), Blackgrass ([11]; Rate 250 g/ha, Postemergence): 6
- Blackgrass plant response rating [11, 21]: 8
- Giant foxtail plant response rating [12, 17]: 8
- Giant foxtail plant response rating [12, 18]: 10
- Plant response rating, Giant foxtail [12, 19]: 10
- Giant foxtail plant response rating [12, 20]: 9
- Plant response rating (0 to 10; 0 is no effect, 10 is complete control), Giant foxtail ([12]; Rate 250 g/ha, Postemergence): 5
- Giant foxtail plant response rating [12, 21]: 8
- Corn plant response rating [13, 17]: 0
- Corn plant response rating [13, 18]: 0
- Plant response rating, Corn [13, 19]: 3
- Corn plant response rating [13, 26]: 0
- Corn plant response rating [13, 27]: 0
- Corn plant response rating [13, 20]: 0
- Plant response rating (0 to 10; 0 is no effect, 10 is complete control), Corn ([13]; Rate 250 g/ha, Postemergence): 0
- Corn plant response rating [13, 21]: 0
- Soybean plant response rating [14, 17]: 0
- Soybean plant response rating [14, 18]: 0
- Plant response rating, Soybean [14, 19]: 2
- Soybean plant response rating [14, 20]: 0
- Soybean plant response rating [14, 21]: 4
- Rape plant response rating [15, 17]: 0
- Rape plant response rating [15, 18]: 10
- Plant response rating, Rape [15, 19]: 10
- Rape plant response rating [15, 20]: 2
- Plant response rating (0 to 10; 0 is no effect, 10 is complete control), Rape ([15]; Rate 250 g/ha, Postemergence): 0
- Rape plant response rating [15, 21]: 0
- Rice plant response rating [16, 22]: 0
- Rice plant response rating [16, 23]: 0
- Rice plant response rating [16, 24]: 0
- Rice plant response rating [16, 25]: 0
